Results reported in patent US8084621B2, “3-Pyrrolo[b]cyclohexylene-2-dihydroindolinone derivatives and uses thereof” (Jiangsu Simcere Pharmaceutical R&D Co. Ltd., priority 2006, dated 2011).
pIC50: −log10 of the molar value.

Target: T1, VEGFR-2 (Homo sapiens, UniProt P35968)
T1 construct: purchased Cell Signaling Technology CO
Assay: Protein kinase activity by ELISA in vitro, VEGFR-2
Type: biochemical
Details: read-out: IC50 of the VEGF Receptor Kinase
Description: An ELISA (Enzyme-Linked Immunosorbent Sandwich Assay) procedure may be used to detect and measure the level of protein tyrosine kinase activity. […] According to the principle of ELISA, a monoclonal antibody can react with phosphorylated substrate specially, so biotin-labeled substrate is binded to streptavidin-coated ELISA plate, and then binded to a HRP-labeled goat anti-mouse antibody. Finally TMB is added for a color reaction and the value of A450-A630 is read by ELISA plate reader. The OD value can reflect the inhibitory activity of the VEGFR-2, PDGFR-β, c-Kit tyrosine kinases etc. treated with the test compounds at the different concentrations. So, the assay may be used to measure the inhibition ratio of the compounds for the tyrosine kinase activity. Similar assays can be designed along the same lines for any PK using techniques well known in the art.
According to the principle of ELISA, a monoclonal antibody can react with phosphorylated substrate specially, so biotin-labeled substrate is binded to streptavidin-coated ELISA plate, and then binded to a HRP-labeled goat anti-mouse antibody. Finally TMB is added for a color reaction and the value of A450-A630 is read by ELISA plate reader. The OD value can reflect the inhibitory activity of the VEGFR-2, PDGFR-β c-Kit tyrosine kinases treated with the test compounds at the different concentrations. So, the assay may be used to measure the inhibition ratio of the compounds for the tyrosine kinase activity. Similar assays can be designed along the same lines for any PK using techniques well known in the art.
VEGF Receptor 2, PDGF Receptor-beta and c-kit kinase assay kit (include kinase, 1.25M DTT, substrate peptide, 10 mM ATP, P-Tyr-100 Mouse antibody, 4×HTScan tyrosine kinase buffer), Cell Signaling Technology CO.; HRP labeled goat anti mouse IgG, Protein Tech CO.; TMB, Pierce CO.; Streptavidin Microtitration Plate, Greiner Bio-one CO.; Infinite M200 Reader, Tecan CO.
1.2.1 Immediately transfer enzyme from −80° C. to ice. Allow enzyme to thaw on ice then at 4° C. and centrifugate transiently to the bottom of centrifuge tube, then lay back on ice quickly
1.2.2 Add 10 μl of DTT (1.25 M) to 2.5 ml of 4×HTScan tyrosine kinase buffer (240 mM HEPES pH 7.5, 20 mM MgCl2, 20 mM MnCl2, 12 μM Na3VO4). Transfer 0.6 ml of DTT/Kinase buffer to each enzyme tube to make 4× reaction Cocktail. Incubate 12.5 μl of the 4× reaction cocktail with 12.5 μl/well prediluted compound of interest for 5 minutes at room temperature, and set blank control, free-enzyme control, negative control and positive control. 1.2.3 Add 10 μl 10 mM ATP to 1.25 ml 6 μM substrate peptide. Dilute the mixture with dH20 to 2.5 ml to make 2×ATP/substrate cocktail. Add 25 μl of 2×ATP/substrate cocktail to 25 μl/well preincubated reaction cocktail/compound. Incubate reaction plate at room temperature for 30 minutes. 1.2.4 Add 50 μl/well stop Buffer (50 mM EDTA, pH 8) to stop the reaction. Transfer 25 μl of each reaction and 75 μl dH2O/well to a 96-well streptavidin coated plate and incubate at room temperature for 60 minutes. Wash three times with 200 μl/well PBS/T(1×PBS, 0.05% Tween-20). 1.2.5 Dilute primary antibody, Phospho-Tyrosine mAb (P-Tyr-100), 1:500 in PBS/T with 1% BSA. Add 100 μl/well primary antibody. Incubate at room temperature for 60 minutes. Wash three times with 200 μl/well PBS/T(1×PBS, 0.05% Tween-20). 1.2.6 Prepare appropriate dilution of HRP labeled secondary antibody, 1:500 in PBS/T with 1% BSA. Add 100 μl/well secondary antibody solution. Incubate at room temperature for 30 minutes. Wash five times with 200 μl/well PBS/T 1.2.7 Add 100 μl/well TMB substrate and incubate at room temperature for 1-10 minutes. Add 50 μl 2M H2SO4 to stop the color reaction. Read the absorbance of A450-A630 with the Infinite M200 microtiter plate reader. 1.2.8 Calculate the inhibition ratio with the following formula: […]

T1 sequence (P35968 20-1356): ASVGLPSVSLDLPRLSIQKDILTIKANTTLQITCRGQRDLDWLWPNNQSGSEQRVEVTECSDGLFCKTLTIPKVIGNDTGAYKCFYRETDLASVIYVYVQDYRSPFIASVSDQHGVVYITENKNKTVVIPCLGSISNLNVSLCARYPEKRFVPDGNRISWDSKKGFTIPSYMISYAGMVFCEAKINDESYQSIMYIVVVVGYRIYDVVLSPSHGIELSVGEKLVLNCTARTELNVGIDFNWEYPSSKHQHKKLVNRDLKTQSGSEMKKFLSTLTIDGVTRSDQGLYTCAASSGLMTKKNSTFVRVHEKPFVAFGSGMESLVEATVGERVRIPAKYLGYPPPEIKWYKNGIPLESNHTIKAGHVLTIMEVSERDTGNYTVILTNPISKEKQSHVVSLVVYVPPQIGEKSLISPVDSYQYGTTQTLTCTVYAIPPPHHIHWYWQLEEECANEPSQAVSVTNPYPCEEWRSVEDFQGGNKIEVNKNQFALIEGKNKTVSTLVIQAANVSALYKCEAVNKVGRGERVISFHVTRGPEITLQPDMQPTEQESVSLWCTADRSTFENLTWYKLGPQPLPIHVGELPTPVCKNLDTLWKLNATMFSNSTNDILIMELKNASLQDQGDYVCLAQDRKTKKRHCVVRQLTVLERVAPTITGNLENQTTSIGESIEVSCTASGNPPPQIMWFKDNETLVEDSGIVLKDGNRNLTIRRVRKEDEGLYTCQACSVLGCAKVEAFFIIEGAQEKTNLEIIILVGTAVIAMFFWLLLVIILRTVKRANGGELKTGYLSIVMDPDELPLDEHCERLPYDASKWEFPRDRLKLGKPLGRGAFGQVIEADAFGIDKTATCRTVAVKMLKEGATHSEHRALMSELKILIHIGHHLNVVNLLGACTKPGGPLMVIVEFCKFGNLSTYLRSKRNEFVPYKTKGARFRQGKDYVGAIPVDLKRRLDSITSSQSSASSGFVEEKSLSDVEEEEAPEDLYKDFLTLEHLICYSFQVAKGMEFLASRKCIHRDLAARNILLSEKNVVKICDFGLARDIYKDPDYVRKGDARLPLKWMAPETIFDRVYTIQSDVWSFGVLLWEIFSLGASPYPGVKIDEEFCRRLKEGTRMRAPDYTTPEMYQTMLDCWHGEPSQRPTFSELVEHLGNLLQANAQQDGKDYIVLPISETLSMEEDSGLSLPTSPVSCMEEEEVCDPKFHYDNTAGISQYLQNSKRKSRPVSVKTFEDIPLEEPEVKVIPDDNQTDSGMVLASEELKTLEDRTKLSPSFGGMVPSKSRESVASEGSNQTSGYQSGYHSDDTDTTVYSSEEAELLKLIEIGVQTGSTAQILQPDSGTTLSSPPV

Structure (SMILES)	pIC50
Cc1[nH]c2c(c1C(=O)NCCN1CCCCC1)CCC/C2=C1/C(=O)Nc2ccc(F)cc21 [I-26, N-(2-(piperidin-1-yl)ethyl)-2-methyl-7-[1,2-dihydro-5-fluoro-2-oxo-3H-indol-(Z)-3-ylidene]-4,5,6,7-tetrahydro-1H-indole-3-carboxamide]	8.04
Cc1[nH]c2c(c1C(=O)N(C)CCN(C)C)CCC/C2=C1/C(=O)Nc2ccc(F)cc21 [I-57, N-(2-(dimethylamino)ethyl)-N,2-dimethyl-7-[1,2-dihydro-5-fluoro-2-oxo-3H-indol-(Z)-3-ylidene]-4,5,6,7-tetrahydro-1H-indole-3-carboxamide]	7.89
Cc1[nH]c2c(c1C(=O)NCCCN1CCOCC1)CCC/C2=C1/C(=O)Nc2ccc(F)cc21 [I-21, N-(3-morpholinopropyl)-2-methyl-7-[1,2-dihydro-5-fluoro-2-oxo-3H-indol-(Z)-3-ylidene]-4,5,6,7-tetrahydro-1H-indole-3-carboxamide]	7.57
Cc1[nH]c2c(c1C(=O)NCCc1ccccn1)CCC/C2=C1/C(=O)Nc2ccc(F)cc21 [I-56, N-(2-(pyridin-2-yl)ethyl)-2-methyl-7-[1,2-dihydro-5-fluoro-2-oxo-3H-indol-(Z)-3-ylidene]-4,5,6,7-tetrahydro-1H-indole-3-carboxamide]	7.77
Cc1[nH]c2c(c1C(=O)N1CCC[C@H]1CN1CCCC1)CCC/C2=C1/C(=O)Nc2ccc(F)cc21 [I-60]	7.85

Next, values leading:

pIC50	Structure (SMILES)
7.92	CCN(CC)CCNC(=O)c1c(C)[nH]c2c1CCC/C2=C1/C(=O)Nc2cccc(F)c21 [I-49, N-(2-(diethylamino)ethyl)-2-methyl-7-[1,2-dihydro-4-fluoro-2-oxo-3H-indol-(Z)-3-ylidene]-4,5,6,7-tetrahydro-1H-indole-3-carboxamide]
7.89	CCN(CC)CCNC(=O)c1c(C)[nH]c2c1CCC/C2=C1/C(=O)Nc2ccc(OC)cc21 [I-53, N-(2-(diethylamino)ethyl)-2-methyl-7-[1,2-dihydro-5-methoxy-2-oxo-3H-indol-(Z)-3-ylidene]-4,5,6,7-tetrahydro-1H-indole-3-carboxamide]
7.96	CCN(CC)CCNC(=O)c1c(C)[nH]c2c1CCC/C2=C1/C(=O)Nc2cc(Cl)ccc21 [I-46, N-(2-(diethylamino)ethyl)-2-methyl-7-[1,2-dihydro-6-chloro-2-oxo-3H-indol-(Z)-3-ylidene]-4,5,6,7-tetrahydro-1H-indole-3-carboxamide]
8.20	CCN(CC)CCNC(=O)c1c(C)[nH]c2c1CCC/C2=C1/C(=O)Nc2ccc(Br)cc21 [I-36, N-(2-(diethylamino)ethyl)-2-methyl-7-[1,2-dihydro-5-bromo-2-oxo-3H-indol-(Z)-3-ylidene]-4,5,6,7-tetrahydro-1H-indole-3-carboxamide]
7.96	CCN(CC)CCNC(=O)c1c(C)[nH]c2c1CCC/C2=C1/C(=O)Nc2c(C)cc(C)cc21 [I-34, N-(2-(diethylamino)ethyl)-2-methyl-7-[1,2-dihydro-5,7-dimethyl-2-oxo-3H-indol-(Z)-3-ylidene]-4,5,6,7-tetrahydro-1H-indole-3-carboxamide]
8.10	CCN(CC)CCNC(=O)c1c(C)[nH]c2c1CCC/C2=C1/C(=O)Nc2ccc(NC(C)=O)cc21 [I-45]
7.27	CCN(CC)CCNC(=O)c1c(C)[nH]c2c1CCC/C2=C1/C(=O)Nc2ccc(C(=O)Nc3ccc(F)cc3)cc21 [I-51, N-(2-(diethylamino)ethyl)-2-methyl-7-[N-(4-fluorophenyl)-5-carboxamide-1,2-dihydro-2-oxo-3H-indol-(Z)-3-ylidene]-4,5,6,7-tetrahydro-1H-indole-3-carboxamide]
7.72	CCN(CC)CCNC(=O)c1c(C)[nH]c2c1CCC/C2=C1/C(=O)Nc2ccc(S(=O)(=O)NC)cc21 [I-55, N-(2-(diethylamino)ethyl)-2-methyl-7-[N-methyl-1,2-dihydro-2-oxo-3H-indol-5-sulfonamide-(Z)-3-ylidene]-4,5,6,7-tetrahydro-1H-indole-3-carboxamide]
